The values that follow are results of earlier work, collected in US8633208B2, “6-1H-imidazo-quinazoline and quinolines derivatives, new MAO inhibitors and imidazoline receptor ligands” (Rottapharm S.p.A, priority 2008, dated 2014).

The test system of the data set is CD1 Mice. Conditions: commercially available antidepressant drugs, subcutaneous; Millan MJ et al., 2001 JPET, 298(2): 581-591; cited from earlier work.

As to `CN(C)CCCC1(c2ccc(F)cc2)OCc2cc(C#N)ccc21` (stereo not drawn) [Citalopram], the ED50 is given as 8.8 mg/Kg; SC.

Turning to `CCOc1ccccc1OC(c1ccccc1)C1CNCCO1` (stereo not drawn) [Reboxetine], the ED50 is given as 4.2 mg/Kg; SC.

With `COc1ccc(C(CN(C)C)C2(O)CCCCC2)cc1` (stereo not drawn) [Venlafaxine], the ED50 is 11.7 mg/Kg; SC.
